Measured values: PubChem BioAssay (NCI)
Where “and” joins values, the source holds several entries; their conditions need not be identical. Equal entries are not always repeated.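 Following 48 hours of exposure in 96-well plates, responses at five concentrations were used to interpolate endpoints linearly. GI50: concentration for 50% inhibition of growth. TGI is the concentration that stops growth completely.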

Assays:
Assay in all cases: DTP human tumour cell line panel, 48 h
[1] = test system: SK-MEL-5 melanoma
[2] = test system: HOP-92 NSCLC
[3] = test system: SN12C renal
[4] = test system: HOP-62 NSCLC
[5] = test system: HS 578T breast
[6] = test system: SF-268 CNS
[7] = test system: OVCAR-4 ovarian
[8] = test system: SNB-75 CNS
[9] = test system: MDA-MB-435
[10] = test system: SK-MEL-28 melanoma

Row | Compound | GI50 [1] [µM] | TGI [1] | GI50 [2] [µM] | TGI [2] | GI50 [3] [µM] | TGI [3] | GI50 [4] [µM] | TGI [4] [µM] | GI50 [5] [µM] | TGI [5] | GI50 [6] [µM] | TGI [6] | GI50 [7] | TGI [7] | GI50 [8] [µM] | TGI [8] | GI50 [9] [µM] | TGI [9] | GI50 [10] [µM] | TGI [10]
1 | O=c1c2ccccc2c(=O)c2c1[nH]c1c(-c3ccccc3)c(-c3ccccc3)c(=O)c12 | 2.05 | 4.03 µM | 3.23 | 12.7 µM | 3.57 | 16 µM | 3.28 | 9.15 | 5.67 | 31.1 µM | 4.48 | > 100 µM | 6.43 µM | > 100 µM | 15.1 | 52.1 µM | 3.24 | 9.42 µM | 3.51 | 14.3 µM
2 | Nc1nc(F)nc2c1ncn2C1OC(CO)C(O)C1O (configuration not stated) | 39.7 | > 100 µM | 14 | > 100 µM and 97.6 µM | 5.55 | > 72.2 µM and 45.1 µM | 13.6 | > 79.6 |  | > 100 µM | 55.4 | > 100 µM |  | > 100 µM |  | > 100 µM | 17.1 | > 100 µM | > 100 | > 100 µM
3 | ClCC[N+]12CC[N+](CCCl)(CC1)C2 |  | > 100 µM |  | > 100 µM |  | > 100 µM |  | > 100 |  | > 100 µM |  | > 100 µM |  | > 100 µM |  | > 100 µM |  | > 100 µM |  | > 100 µM
4 | CCNC(=O)Nc1cccc(NC(=O)NCC)n1 |  | > 100 µM |  | > 100 µM |  | > 100 µM |  | > 100 |  | > 100 µM |  | > 100 µM |  | > 100 µM |  | > 100 µM |  | > 100 µM |  | > 100 µM
5 | CCOc1cc(C(C)(C)C)ccc1C1=N[C@@](C)(c2ccc(Cl)cc2)[C@@](C)(c2ccc(Cl)cc2)N1C(=O)N1CCN(CCCS(C)(=O)=O)CC1 | 1.63 | 3.21 µM | 2.31 | 8.17 µM | 3.84 | 14.5 µM | 11.4 | 29.3 | 9.26 | 35.2 µM | 9.42 | 37.6 µM | 7.33 µM | 22.5 µM | 3.64 | 17.3 µM | 5.21 | 19.4 µM | 6.1 | 19.3 µM
6 | Cc1[nH]c2ccccc2c(=O)c1CC=C(Cl)Cl | 27.5 | > 100 µM | 15 | 70.3 µM | 50.3 | > 100 µM | 24.1 | 64.5 | 24.6 | > 100 µM | 31.2 | > 100 µM | 18.6 µM | 79.9 µM | 10.6 | 37.5 µM | > 100 | > 100 µM | 52.9 | > 100 µM
7 | O=C(O)C1C(Br)(c2ccccc2)C1(Br)c1ccccc1 (configuration not stated) |  | 88.8 µM |  | > 100 µM |  | > 100 µM |  | > 100 |  | > 100 µM |  | 69.7 µM |  | 64.1 µM |  | 93.9 µM |  | > 100 µM |  | 52.6 µM
8 | Clc1ccc(C=Nc2ccc3c(c2)Cc2ccccc2-3)c(Cl)c1 |  | > 100 µM |  | > 100 µM |  | > 100 µM |  | > 100 |  | > 100 µM |  | > 100 µM |  | > 100 µM |  | > 100 µM |  | > 100 µM |  | > 100 µM
9 | O=c1cccc(C#CC#CC2=CCCCC2)o1 | 3.3 | 8.89 µM |  | > 23 µM | 0.516 | 1.48 µM | 8.65 | 16.3 | 5.24 | 24.3 µM | 9.15 | 20.6 µM | 28 µM | > 49.3 µM | 7.1 | 36.8 µM | 4 | 10.4 µM | > 29.9 | > 52.6 µM
10 | CC/C=C\C[C@H]1C/C=C2/C(=O)C=C[C@@H]2C/C=C\CCCC(=O)O1 | 1.38 | 2.74 µM | 2.34 | 5.93 µM | 0.986 | 4.34 µM | 1.81 | 5.39 | 4.34 | 38.1 µM | 2.16 | 9.49 µM | 2.73 µM | 16.3 µM | 4.02 | 18 µM | 0.37 | 4.08 µM | 0.791 | 3.07 µM
11 | Nc1ccc2cc3ccc(N)cc3nc2c1 |  | 2.74 µM and 4.33 µM and 2.93 µM |  | 6.14 µM and 6.32 µM and 7.11 µM | 1.18 |  | 0.795 |  |  | 6.59 µM and 7.97 µM and 9.65 µM | 1.12 | 10.2 µM [middle of 4 runs] | 1.21 µM [middle of 4 runs] | 4.23 µM [middle of 4 runs] |  | 3.25 µM [middle of 4 runs] |  | 4.37 µM and 4.04 µM |  | 5.11 µM [middle of 4 runs]
12 | O=S(=O)(Nc1cc(Sc2cccc3cccnc23)c(O)c2ccccc12)c1ccccc1 | 1.36 | 3.05 µM | 2.61 | 7.38 µM | 0.798 | 3.6 µM | 1.01 | 25.4 | 3.27 | 79.3 µM | 1.48 | 12.8 µM | 0.474 µM | 1.75 µM | 3.23 | 16.9 µM | 2.01 | 12.6 µM | 0.801 | 5.57 µM
13 | COc1ccc2cc(C(C)C(=O)N3CCOC3=O)ccc2c1 (configuration not stated) |  | > 100 µM |  | > 100 µM |  | > 100 µM |  | > 100 |  | > 100 µM |  | > 100 µM |  | > 100 µM |  | > 100 µM |  | > 100 µM |  | > 100 µM
14 | O=C1NC(=O)C(CC2CCCCCCCCCCC2=O)C(=O)N1 (configuration not stated) |  | > 100 µM |  | > 100 µM |  | > 100 µM |  | > 100 |  | > 100 µM |  | > 100 µM |  | > 100 µM |  | > 100 µM |  | > 100 µM |  | > 100 µM
15 | CCCCON(OC(=O)c1ccc2ccc3cccc4ccc1c2c34)C(C)=O | 16.9 | 32.5 µM | 16.3 | 44.3 µM | 19.6 | 39.2 µM | 24 | 60.1 | 18.8 | 66.6 µM | 19.5 | 40.5 µM | 23.5 µM | 59.9 µM | 19.9 | 41.7 µM | 22.3 | 50.4 µM | 27.1 | 81.7 µM
16 | Cc1ccc2[nH]c(O)c(N=Nc3ccc(S(N)(=O)=O)cc3)c2c1 | 11 | > 25 µM | > 25 | > 25 µM | 15.4 | > 25 µM | 11.5 | > 25 | 8.24 | > 25 µM | 11.8 | > 25 µM | 6.62 µM | > 25 µM | 8.46 | > 25 µM | 15.5 | > 25 µM | 24.4 | > 25 µM
17 | C=C1C(=O)OC2/C=C(\COC(C)=O)CCC(OC(C)=O)C3=CC(OC3=O)C12 (configuration not stated) |  | 26.7 µM |  | 12.5 µM |  | 18.9 µM |  | 38.8 |  | 52.8 µM |  | 50 µM |  | 52 µM |  | 35.6 µM |  | 32.9 µM |  | 11.6 µM
18 | C=CC[C@]12C=C(OC)[C@@H](O)[C@](OC)(C(c3cc(OC)c4c(c3)OCO4)[C@H]1C)[C@H]2OC(C)=O (some centres not stated) |  | > 100 µM |  | > 100 µM |  | > 100 µM |  | > 100 |  | > 100 µM |  | > 100 µM |  | > 100 µM |  | > 100 µM |  | > 100 µM |  | > 100 µM
19 | CCSc1nc(SCC)c2cn[nH]c2n1 | 18 | 41.8 µM | 34.6 | > 100 µM | 47.7 | > 100 µM | 18.6 | > 100 | 10.7 | 48.6 µM | 26.3 | 77.5 µM | 84.1 µM | > 100 µM | > 100 | > 100 µM | 49.6 | > 100 µM | 64.6 | > 100 µM
20 | COc1cc(C(=O)c2cc(C)c3[nH]c4ccc(C)cc4c3c2C)cc(OC)c1OC | < 0.01 | < 0.0146 µM | < 0.01 | 5.86 µM | < 0.01 | > 100 µM | < 0.01 | > 100 | < 0.01 | > 100 µM | < 0.0186 | > 100 µM | 0.0714 µM | > 100 µM | < 0.01 |  | < 0.01 | 0.136 µM | 1.64 | > 100 µM
21 | COc1c(CCl)cc(-c2cc(=O)c3ccccc3s2)cc1CCl |  | > 100 µM |  | 1.8 µM |  | > 100 µM |  | 32.6 |  | 59.6 µM |  | > 100 µM |  | 16.4 µM |  | 24.9 µM |  | > 100 µM |  | > 100 µM
22 | CC1=CC(C/C(C)=C/COc2ccc3ccc(=O)oc3c2)OC1=O (configuration not stated) |  | > 100 µM |  | > 100 µM |  | > 100 µM |  | > 100 |  | > 100 µM |  | > 100 µM |  | > 100 µM |  | > 100 µM |  | > 100 µM |  | > 100 µM
23 | COc1ccc(/C=C/c2cc(OC)cc(=O)o2)cc1 |  | > 100 µM |  | > 100 µM |  | > 100 µM |  | > 100 |  | > 100 µM |  | > 100 µM |  | > 100 µM |  | 44.6 µM |  | > 100 µM |  | > 100 µM
24 | COc1cc(NC(C)CCCN)c2nccc(C)c2c1 (configuration not stated) |  | 82.8 µM |  | > 100 µM |  | > 100 µM |  | 34 |  | 64.3 µM |  | > 100 µM |  | 59.9 µM |  | 37.1 µM |  | 30.4 µM |  | 35.3 µM
25 | O=C(CCC1OCCO1)Nc1cc(NCc2ccccc2)ccc1OCc1ccccc1 |  | 35.3 µM |  | 73.3 µM |  | > 100 µM |  | > 100 |  | > 100 µM |  | > 100 µM |  | > 100 µM |  | > 100 µM |  | 63.9 µM |  | > 100 µM
